# “And” between values parts separate entries of the source, which are not always exact repeats. Identical values can stand only once. Like-named read-outs stand apart in the source and are kept apart here.
# Test system: panel of 66 cancer cell lines
# Experiment: cancer cell line screen, proliferation assay (ATPlite, 72 h)
# Assay type: cell-based, human
# Settings: for IC50: Homo sapiens; for raw signal, dose-response (Figure S7a): rep1, rep2, listed as AVX235
# Excerpt: Targeting specific molecular vulnerabilities in cancer is considered a key approach to reducing the adverse effects of chemotherapy. However, the events that govern the susceptibility to suppression of the cPLA2α in cancer remain largely unexplored. We therefore took the approach of screening the antiproliferative activity of AVX420 in a panel of 66 cancer cell lines (hereafter referred to as the cancer cell line screen or CCLS) to allow us to investigate molecular and genetic vulnerabilities to the drug.
# Screening of compound activities in 66 cancer cell lines was carried out at the Netherlands Translation Research Center. Briefly, proliferation assays were performed 72 h after compound addition using ATPlite 1step reagent (Perkin Elmer). IC50s calculated by non-linear regression analysis were used as a measure of compound activity for investigating associations with genetic factors. A complete description of the laboratory and data analysis methods are available in the Supplementary Information file (Supplemental Methods: Cancer Cell Line Screening).
# Cancer cell line screening
# Cell proliferation assays
# All cell lines were from the American Type Culture Collection (ATCC) Manassas, Virginia (US) and maintained under ATCC-recommended protocols and within 9 pas- […]
# DMSO at -80°C until one hour before use. Cells exposed within one hour after thaw-ing of the compound stocks. Final compound concentration range in the assay was 10 […]
# cated by supplier. Compounds were dissolved in 100 % DMSO and stored at room temperature. Final concentration of the reference compounds in the assay was 3.16x10-5 M to 3.16x10-9 M. The final DMSO concentration during incubation was […]
# Cell lines were plated in Advanced RPMI 1640 (Gibco, ref 12633-012) cell culture medium, containing 1% Glutamax solution (Gibco, ref 35050-038), 0.4% Pen Strep solution (Gibco, ref 15140-122) and bovine serum. The cPLA2α inhibitors were tested in 0.5% bovine serum (HyClone, ref SH30072.03) with the exception of769-P, A-204, BT-549, SR, T98G, which were tested in the presence of 1.0% serum and A-704 and LNCaP FGS, which were tested in the in the presence of 10% serum. Reference com-pounds were all tested in the presence of 10% bovine serum.
# Cells were dispensed in a 384-well plate, at a concentration of 200 - 3200 cells per well, depending on the cell line, in 45 μL medium. Plated cells were incubated in a humidified atmosphere of 5% CO2 at 37 °C. After 24 hours, 5 μL of compound dilu-tion was added and plates were further incubated for another 72 hours. After 72 hours, 25 μL of ATPlite 1Step™ (PerkinElmer) solution was added to each well, and subse-quently shaken for 2 minutes. After 10 minutes of incubation in the dark, the lumines-cence was recorded on an Envision multimode reader (PerkinElmer).
# Cell growth control. The cellular doubling times of all cell lines are calculated from the t = 0 hours and t = 72 hours growth signals of the untreated cells. If the doubling time is out of specification (0.5 – 2.0 times deviating from historic average) the assay […]
# IC50s were calculated by non-linear regression using IDBS XLfit 5. The percentage growth after 72h (%-growth) was calculated as follows: 100% x (luminescence t = 72h / luminescence untreated,t=72h). This was fitted to the 10log compound concentration (conc) by a 4-parameter logistics curve: %-growth = bottom + (top – bottom) / (1+ 10(logIC50 – conc)*hill)), where hill is the Hill-coefficient, and bottom and top the asymptotic mini-mum and maximum cell growth that the compound allows in that assay.
# All analysis were performed in the statistical software package R and visualized using GraphPad Prism version 10.0 .0
smiles,measurement,setting,value
CCCCCCCCc1ccc(OCC(=O)c2nc(C(=O)OC)cs2)cc1 [GK470],IC50,"SK-N-AS, SKNAS, peripheral_nervous_system, read-out: pIC50 (converted)",19.1 µM
same,IC50,"SK-N-AS, read-out: IC50",19 µM
same,IC50,"SK-N-FI, read-out: IC50",17.5 µM
same,IC50,"SNU-C2B, read-out: IC50",14.7 µM
same,IC50,"SR, read-out: IC50",13.8 µM
same,IC50,"SUP-T1, SUP-T1, read-out: IC50",12.5 µM
same,IC50,"SW48, SW48, large_intestine, read-out: pIC50 (converted)",20 µM
same,IC50,"SW48, SW48, read-out: IC50",19.9 µM
same,IC50,"SW480, SW480, read-out: IC50",13.5 µM
same,IC50,"SW948, SW948, read-out: IC50",17.4 µM
same,IC50,"SW-620, SW620, read-out: IC50",18.1 µM
same,IC50,"T98G, read-out: IC50",28.4 µM
same,IC50,"T-24, T24, read-out: IC50",12.3 µM
same,IC50,"TT, read-out: IC50",21.8 µM
same,IC50,"U2OS, U-2 OS, read-out: IC50",17.7 µM
same,IC50,"U-87 MG, U87MG, central_nervous_system, read-out: pIC50 (converted)",17 µM
same,IC50,"U-87 MG, read-out: IC50",17 µM
same,IC50,"VA-ES-BJ, read-out: IC50",19.6 µM
same,pIC50,"Hs578T, breast","4,862"
same,pIC50,"J82, urinary_tract","4,801"
same,"raw signal, dose-response (Figure S7a)","Jurkat E6.1, Log10 M -4",1240 and 667
same,"raw signal, dose-response (Figure S7a)","Jurkat E6.1, Log10 M -4.5",69347 and 62800
same,"raw signal, dose-response (Figure S7a)","Jurkat E6.1, Log10 M -5",1516720 and 2014840
same,"raw signal, dose-response (Figure S7a)","Jurkat E6.1, Log10 M -5.5",2624707 and 2368947
same,"raw signal, dose-response (Figure S7a)","Jurkat E6.1, Log10 M -6",2496507 and 2717280
same,"raw signal, dose-response (Figure S7a)","Jurkat E6.1, Log10 M -6.5",2786800 and 2504560
same,"raw signal, dose-response (Figure S7a)","Jurkat E6.1, Log10 M -7",2315800 and 2537613
same,"raw signal, dose-response (Figure S7a)","Jurkat E6.1, Log10 M -7.5",2302120 and 2459400
same,"raw signal, dose-response (Figure S7a)","Jurkat E6.1, Log10 M -8",2509133 and 2328987
same,pIC50,"Jurkat, blood","4,903"
same,pIC50,"K562, blood","4,964"
same,pIC50,"KU812, blood","4,982"
same,"raw signal, dose-response (Figure S7a)","KU812, Log10 M -4",2000 and 2307
same,"raw signal, dose-response (Figure S7a)","KU812, Log10 M -5",1822573 and 2233120
same,"raw signal, dose-response (Figure S7a)","KU812, Log10 M -5.5",3176813 and 3177440
same,"raw signal, dose-response (Figure S7a)","KU812, Log10 M -6",3485480 and 3637827
same,"raw signal, dose-response (Figure S7a)","KU812, Log10 M -6.5",3729800 and 3806653
same,"raw signal, dose-response (Figure S7a)","KU812, Log10 M -7",3631000 and 3828800
same,"raw signal, dose-response (Figure S7a)","KU812, Log10 M -7.5",3591800 and 3773040
same,"raw signal, dose-response (Figure S7a)","KU812, Log10 M -8",3583000 and 3731880
same,pIC50,"LoVo, large_intestine","4,715"
same,pIC50,"MCF7, breast","4,897"
same,pIC50,"MIAPaCa2, pancreas","4,962"
same,"raw signal, dose-response (Figure S7a)","MOLT-4, Log10 M -4",6747 and 7320
same,"raw signal, dose-response (Figure S7a)","MOLT-4, Log10 M -4.5",20107 and 20253
same,"raw signal, dose-response (Figure S7a)","MOLT-4, Log10 M -5",5205800 and 4645067
same,"raw signal, dose-response (Figure S7a)","MOLT-4, Log10 M -5.5",6414373 and 7056240
same,"raw signal, dose-response (Figure S7a)","MOLT-4, Log10 M -6",6351120 and 6709307
same,"raw signal, dose-response (Figure S7a)","MOLT-4, Log10 M -6.5",7338240 and 7172960
same,"raw signal, dose-response (Figure S7a)","MOLT-4, Log10 M -7",6855453 and 6993467
same,"raw signal, dose-response (Figure S7a)","MOLT-4, Log10 M -7.5",7127253 and 7052227
same,"raw signal, dose-response (Figure S7a)","MOLT-4, Log10 M -8",6961773 and 6888133
same,pIC50,"MeWo, skin","4,763"
same,pIC50,"NCIH82, lung","4,863"
same,pIC50,"NCIH460, lung","4,648"
same,pIC50,"PA1, ovary","4,937"
same,pIC50,"RPMI7951, skin","4,789"
same,pIC50,"RT4, urinary_tract","4,784"
same,pIC50,"SHP77, lung","4,925"
same,pIC50,"SKNFI, peripheral_nervous_system","4,757"
same,"raw signal, dose-response (Figure S7a)","SR, Log10 M -4",14067 and 13787
same,"raw signal, dose-response (Figure S7a)","SR, Log10 M -4.5",35000 and 26573
same,"raw signal, dose-response (Figure S7a)","SR, Log10 M -5",2706093 and 3120400
same,"raw signal, dose-response (Figure S7a)","SR, Log10 M -5.5",3256320 and 3580587
same,"raw signal, dose-response (Figure S7a)","SR, Log10 M -6",3226453 and 3322280
same,"raw signal, dose-response (Figure S7a)","SR, Log10 M -6.5",3558600 and 3526027
same,"raw signal, dose-response (Figure S7a)","SR, Log10 M -7",2883787 and 3035533
same,"raw signal, dose-response (Figure S7a)","SR, Log10 M -7.5",3423760 and 3325493
same,"raw signal, dose-response (Figure S7a)","SR, Log10 M -8",3355853 and 3535333
same,"raw signal, dose-response (Figure S7a)","SUP-T1, Log10 M -4",23760 and 47307
same,"raw signal, dose-response (Figure S7a)","SUP-T1, Log10 M -4.5",44040 and 66933
same,"raw signal, dose-response (Figure S7a)","SUP-T1, Log10 M -5",5647093 and 4986840
same,"raw signal, dose-response (Figure S7a)","SUP-T1, Log10 M -5.5",6851973 and 7008107
same,"raw signal, dose-response (Figure S7a)","SUP-T1, Log10 M -6",6610693 and 7288227
same,"raw signal, dose-response (Figure S7a)","SUP-T1, Log10 M -6.5",6531960 and 6798507
same,"raw signal, dose-response (Figure S7a)","SUP-T1, Log10 M -7",6485200 and 6760880
same,"raw signal, dose-response (Figure S7a)","SUP-T1, Log10 M -7.5",6096293 and 6838453
same,"raw signal, dose-response (Figure S7a)","SUP-T1, Log10 M -8",6918733 and 6611987
same,pIC50,"SUPT1, blood","4,905"
same,pIC50,"SW480, large_intestine","4,869"
same,pIC50,"SW620, large_intestine","4,743"
same,pIC50,"SW948, large_intestine","4,759"
same,pIC50,"T24, urinary_tract","4,911"
same,pIC50,"T98G, central_nervous_system","4,546"
same,pIC50,"TT, thyroid","4,661"
same,pIC50,"U2OS, bone","4,752"
same,pIC50,"VAESBJ, soft_tissue","4,707"
